Test system: HBV
Assay: Cryopreserved primary human hepatocytes (PHH) HBV infection assay, extracellular HBsAg by CLIA
Format: cell-based
Details: Hepatitis B virus, Hepatocyte, 216 h; HBV-infected cryopreserved PHH; extracellular HBsAg at 9 days post-compound treatment; 4 parameter logistic curve fit
Method: This assay is used to confirm the anti-HBV effect of the compounds in HBV PHH infection assay. Cryopreserved PHH (BioreclamationIVT, Lot YJM) was thawed at 37° C. and gently transferred into pre-warmed InVitroGRO HT medium (BioreclamationIVT, Cat. S03317). The mixture was centrifuged at 70 relative centrifugal force (RCF) for 3 min at RT, and the supernatant was discarded. Pre-warmed InVitroGRO CP medium (BioreclamationIVT, Cat #S03316) was added to the cell pellet to gently re-suspend cells. The cells were seeded at the density of 5.8×10^4 cells per well to collagen I coated 96-well plate (Gibco, Cat. A1142803) with the InVitroGRO CP medium. All plates were incubated at 37° C. with 5% CO2 and 85% humidity.
At 20 hrs after plating, the medium was changed to PHH culture medium (Dulbecco's Modified Eagle Medium (DMEM)/F12 (1:1) (Gibco, Cat. 11320-033), 10% fetal bovine serum (Gibco Cat. 10099141), 100 U/mL penicillin, 100 μg/mL streptomycin (Gibco, Cat. 151401-122), […] (Invitrogen Cat. PHG0311L), 20 ng/mL dexamethasone (Sigma, Cat. D4902) and 250 ng/mL human recombinant insulin (Gibco, Cat. 12585-014)). And the cells were incubated at 37° C. with 5% CO2 and 85% humidity for 4 hrs. The medium was then changed to pre-warmed PHH culture medium containing 4% polyethylene glycol (PEG) MW8000 (Sigma, Cat. P1458-50 ML) and 1% DMSO (Sigma, Cat. D2650). 5.8×10^6 genomic equivalents of HBV were added into the medium.
At 24 hrs post-infection, the cells were gently washed with PBS and refreshed with PHH culture medium supplemented with 1% DMSO, and 0.25 mg/mL Matrix gel (Corning, Cat. 356237) at 200 μL per well. All plates were immediately placed in at 37° C. CO2 incubator.
24 hrs later, serial dilutions of compounds made with DMSO were further diluted with the same culture medium (PHH culture medium supplemented with 1% DMSO and 0.25 mg/mL Matrix gel as described above) before they were added to the cells to reach desired final compound concentrations and 1% DMSO concentration. The medium containing the compounds were refreshed every three days.
At 9 days post-compound treatment, extracellular HBsAg level were measured with Chemiluminescence Immuno Assay (CLIA) kit (Autobio, HBsAg Quantitative CLIA).
HBsAg IC50 was derived from the dose-response curve using 4 parameter logistic curve fit method. The compounds of formula (I) have HBsAg IC50<20 μM, particularly <1 μM.

Compared with CCOC(=O)c1c(NCc2c(Br)ccc(OC)c2OC)nc(C(C)C)nc1-c1ccco1 [Example 62, Ethyl 4-[(6-bromo-2,3-dimethoxy-phenyl)methylamino]-6-(2-furyl)-2-isopropyl-pyrimidine-5-carboxylate], COc1ccc(Br)c(CNc2nc(C)nc(-c3ccco3)c2C#N)c1OC [Example 20, 4-[(6-bromo-2,3-dimethoxy-phenyl)methylamino]-6-(2-furyl)-2-methyl-pyrimidine-5-carbonitrile] is 3.8-fold lower in IC50: 10.2 µM for the first, 2.66 µM for the second.

First: N#Cc1c(NCCc2ccccc2)ncnc1-c1ccco1 [Example 28, 4-(2-furyl)-6-(2-phenylethylamino)pyrimidine-5-carbonitrile]
Second: N#Cc1c(NCc2ccccc2)ncnc1-c1ccco1 [Example 25, 4-(benzylamino)-6-(2-furyl)pyrimidine-5-carbonitrile]
The IC50 of the first is 4.8-fold lower: 0.42 µM for the first, 2.03 µM for the second.

Nc1nc(NCc2cccc(C(F)(F)F)c2)c(C(=O)N2CCC2)c(-c2ccco2)n1 [Example 52, [2-amino-4-(2-furyl)-6-[[3-(trifluoromethyl)phenyl]methylamino]pyrimidin-5-yl]-(azetidin-1-yl)methanone] and Nc1nc(NCc2cccc(C(F)(F)F)c2)c(C(=O)N2CCOCC2)c(-c2ccco2)n1 [Example 55, [2-amino-4-(2-furyl)-6-[[3-(trifluoromethyl)phenyl]methylamino]pyrimidin-5-yl]-morpholino-methanone] are within 1.5-fold of each other in IC50: 7.94 µM for the first, 10.1 µM for the second.

COCCNc1nc(NCc2cccc(C(F)(F)F)c2)c(C#N)c(-c2ccco2)n1 [Example 12, 4-(2-furyl)-2-(2-methoxyethylamino)-6-[[3-(trifluoromethyl)phenyl]methylamino]pyrimidine-5-carbonitrile] and CCNc1nc(NCc2cccc(C(F)(F)F)c2)c(C#N)c(-c2ccco2)n1 [Example 14, 2-(ethylamino)-4-(2-furyl)-6-[[3-(trifluoromethyl)phenyl]methylamino]pyrimidine-5-carbonitrile] are within 1.5-fold of each other in IC50: 3.89 µM for the first, 2.76 µM for the second.

First: CC(Nc1cc(-c2ccco2)nc(N(C)C)n1)c1cccc(C(F)(F)F)c1 (stereo not drawn) [Example 32, 6-(2-furyl)-N2,N2-dimethyl-N4-[1-[3-(trifluoromethyl)phenyl]ethyl]pyrimidine-2,4-diamine]
Second: CN(C)c1nc(NCc2cccc(C(F)(F)F)c2)c(C#N)c(-c2ccco2)n1 [Example 16, 2-(dimethylamino)-4-(2-furyl)-6-[[3-(trifluoromethyl)phenyl]methylamino]pyrimidine-5-carbonitrile]
The IC50 of the first is 1.9-fold lower: 3.49 µM for the first, 6.75 µM for the second.

First: CCOC(=O)c1c(NCc2cccc(C(F)(F)F)c2)nc(SC)nc1-c1ccco1 [Example 45, Ethyl 4-(2-furyl)-2-methylsulfanyl-6-[[3-(trifluoromethyl)phenyl]methylamino]pyrimidine-5-carboxylate]
Second: CCOC(=O)c1c(NCc2cccc(C(F)(F)F)c2)nc(NCC(C)C)nc1-c1ccco1 [Example 49, Ethyl 4-(2-furyl)-2-(isobutylamino)-6-[[3-(trifluoromethyl)phenyl]methylamino]pyrimidine-5-carboxylate]
The IC50 of the first is 1.5-fold higher: 8.16 µM for the first, 5.35 µM for the second.

Cc1ccccc1CNc1nc(N)nc(-c2ccco2)c1C(=O)O [Example 39, 2-amino-4-(2-furyl)-6-(o-tolylmethylamino)pyrimidine-5-carboxylic Acid] and COc1ccccc1CNc1nc(N)nc(-c2ccco2)c1C(=O)O [Example 40, 2-amino-4-(2-furyl)-6-[(2-methoxyphenyl)methylamino]pyrimidine-5-carboxylic Acid] are within 1.5-fold of each other in IC50: 9.07 µM for the first, 6.67 µM for the second.

Nc1nc(NCc2ccc(Cl)cc2)c(C(=O)O)c(-c2ccco2)n1 [Example 37, 2-amino-4-[(4-chlorophenyl)methylamino]-6-(2-furyl)pyrimidine-5-carboxylic Acid] and COCCNc1nc(NCc2cccc(Cl)c2)c(C(=O)O)c(-c2ccco2)n1 [Example 59, 4-[(3-chlorophenyl)methylamino]-6-(2-furyl)-2-(2-methoxyethylamino)pyrimidine-5-carboxylic Acid] are within 1.5-fold of each other in IC50: 2.93 µM for the first, 3.71 µM for the second.

Compared with CCOC(=O)c1c(NCc2ccccc2Cl)ncnc1-c1ccco1 [Example 57, Ethyl 4-[(2-chlorophenyl)methylamino]-6-(2-furyl)pyrimidine-5-carboxylate], Cc1nc(NCc2ccccc2)c(C#N)c(-c2ccco2)n1 [Example 23, 4-(benzylamino)-6-(2-furyl)-2-methyl-pyrimidine-5-carbonitrile] is 1.6-fold higher in IC50: 4.26 µM for the first, 6.89 µM for the second.

Compared with COCCCNc1nc(NCc2cccc(C(F)(F)F)c2)c(C(=O)O)c(-c2ccco2)n1 [Example 51, 4-(2-furyl)-2-(3-methoxypropylamino)-6-[[3-(trifluoromethyl)phenyl]methylamino]pyrimidine-5-carboxylic Acid], COCCNc1nc(NCc2cccc(C(F)(F)F)c2)c(C(=O)O)c(-c2ccco2)n1 [Example 46, 4-(2-furyl)-2-(2-methoxyethylamino)-6-[[3-(trifluoromethyl)phenyl]methylamino]pyrimidine-5-carboxylic Acid] is 2.2-fold lower in IC50: 9.61 µM for the first, 4.31 µM for the second. The second is the more potent here.

CCOc1nc(NCc2cccc(C(F)(F)F)c2)c(C#N)c(-c2ccco2)n1 [Example 18, 2-ethoxy-4-(2-furyl)-6-[[3-(trifluoromethyl)phenyl]methylamino]pyrimidine-5-carbonitrile] and COc1c(NCc2cccc(C(F)(F)F)c2)nc(N)nc1-c1ccco1 [Example 35, 6-(2-furyl)-5-methoxy-N4-[[3-(trifluoromethyl)phenyl]methyl]pyrimidine-2,4-diamine] are within 1.5-fold of each other in IC50: 6.02 µM for the first, 7.85 µM for the second.

CCNc1nc(NC2(c3cccc(C(F)(F)F)c3)CC2)c(C(=O)O)c(-c2ccco2)n1 [Example 60, 2-(ethylamino)-4-(2-furyl)-6-[[1-[3-(trifluoromethyl)phenyl]cyclopropyl]amino]pyrimidine-5-carboxylic Acid] and COCCNc1nc(NC2(c3cccc(C(F)(F)F)c3)CC2)c(C(=O)O)c(-c2ccco2)n1 [Example 58, 4-(2-furyl)-2-(2-methoxyethylamino)-6-[[1-[3-(trifluoromethyl)phenyl]cyclopropyl]amino]pyrimidine-5-carboxylic Acid] are within 1.5-fold of each other in IC50: 6.5 µM for the first, 5.96 µM for the second.

Compared with CC(C)(C)OC(=O)N1CCN(C(=O)c2c(NCc3cccc(C(F)(F)F)c3)nc(N)nc2-c2ccco2)CC1 [Example 56, tert-butyl4-[2-amino-4-(2-furyl)-6-[[3-(trifluoromethyl)phenyl]methylamino]pyrimidine-5-carbonyl]piperazine-1-carboxylate], O=C(O)c1c(NCc2cccc(C(F)(F)F)c2)nc(N2CC3(CCC3)C2)nc1-c1ccco1 [Example 48, 2-(2-azaspiro[3.3]heptan-2-yl)-4-(2-furyl)-6-[[3-(trifluoromethyl)phenyl]methylamino]pyrimidine-5-carboxylic Acid] is 1.5-fold lower in IC50: 9.66 µM for the first, 6.37 µM for the second. The second is the more potent here.

Compared with CC1(C)CC(CNc2nc(N)nc(-c3ccco3)c2C#N)CC(C)(C)O1 [Example 3, 2-amino-4-(2-furyl)-6-[(2,2,6,6-tetramethyltetrahydropyran-4-yl)methylamino]pyrimidine-5-carbonitrile], Nc1nc(NCC2CCCC2)c(C(=O)O)c(-c2ccco2)n1 [Example 41, 2-amino-4-(cyclopentylmethylamino)-6-(2-furyl)pyrimidine-5-carboxylic acid] is 1.9-fold higher in IC50: 1.67 µM for the first, 3.24 µM for the second. The first is the more potent here.

N#Cc1c(NCC2(c3ccccc3)CCCC2)ncnc1-c1ccco1 [Example 30, 4-(2-furyl)-6-[(1-phenylcyclopentyl)methylamino]pyrimidine-5-carbonitrile] and N#Cc1c(NCC2CCCCC2)ncnc1-c1ccco1 [Example 27, 4-(cyclohexylmethylamino)-6-(2-furyl)pyrimidine-5-carbonitrile] are within 1.5-fold of each other in IC50: 9.06 µM for the first, 6.83 µM for the second.

Compared with CC(C)CNc1nc(NCc2cccc(C(F)(F)F)c2)c(C(=O)O)c(-c2ccco2)n1 [Example 50, 4-(2-furyl)-2-(isobutylamino)-6-[[3-(trifluoromethyl)phenyl]methylamino]pyrimidine-5-carboxylic Acid], CCOC(=O)c1c(NCc2cccc(C(F)(F)F)c2)nc(N2CC3(CCC3)C2)nc1-c1ccco1 [Example 47, Ethyl 2-(2-azaspiro[3.3]heptan-2-yl)-4-(2-furyl)-6-[[3-(trifluoromethyl)phenyl]methylamino]pyrimidine-5-carboxylate] is 2.6-fold lower in IC50: 8.62 µM for the first, 3.26 µM for the second. The second is the more potent here.

Molecule CC(C)CNc1ncnc(-c2ccco2)c1C#N [Example 26, 4-(2-furyl)-6-(isobutylamino)pyrimidine-5-carbonitrile] has an IC50 of 5.7 µM.

— patent US20220396567A1, “SUBSTITUTED PYRIMIDINE FOR THE TREATMENT AND PROPHYLAXIS OF HEPATITIS B VIRUS INFECTION” (Hoffmann-La Roche Inc., priority 2019, published 2022)
